Holding throughout (format): functional
Assay [1] concerns Bemisia tabaci. Briefly: Resistance ratio of LC50 for field-collected population of Bemisia tabaci (sweet potato whitefly) biotype B GCC-AM ST (F4-5) adults to LC50 for laboratory strain of Bemisia tabaci (sweet potato whitefly) biotype B adults.
Assay [2] relates to Bemisia tabaci. In words: Resistance ratio of LC50 for field-collected population of Bemisia tabaci (sweet potato whitefly) biotype B GCC-AM (p) (F2) adults to LC50 for laboratory strain of Bemisia tabaci (sweet potato whitefly) biotype B adults.
In assay [3] the test system is Bemisia tabaci. Briefly: Resistance ratio of LC50 for field-collected population of Bemisia tabaci (sweet potato whitefly) biotype B Cortez #1 (F4) adults to LC50 for laboratory strain of Bemisia tabaci (sweet potato whitefly) biotype B adults.
The subject of assay [4] is Bemisia tabaci. In words: Insecticidal activity against laboratory strain of Bemisia tabaci (sweet potato whitefly) biotype B adults infested in cotton seedlings cut stem assessed as mortality measured after 5 days by stabilization treatment based systemic uptake bioassay.
The test system of assay [5] is Bemisia tabaci. In words: Insecticidal activity against field-collected population of Bemisia tabaci (sweet potato whitefly) biotype B GCC-AM ST (F4-5) adults infested in cotton seedlings cut stem assessed as mortality measured after 5 days by stabilization treatment based systemic uptake bioassay.
Assay [6] concerns Bemisia tabaci. In words: Insecticidal activity against field-collected population of Bemisia tabaci (sweet potato whitefly) biotype B GCC-AM (p) (F2) adults infested in cotton seedlings cut stem assessed as mortality measured after 5 days by stabilization treatment based systemic uptake bioassay.
Assay [7] deals with Bemisia tabaci. In words: Insecticidal activity against field-collected population of Bemisia tabaci (sweet potato whitefly) biotype B Cortez #1 (F4) adults infested in cotton seedlings cut stem assessed as mortality measured after 5 days by stabilization treatment based systemic uptake bioassay.
The subject of assay [8] is Bemisia tabaci. Briefly: Insecticidal activity against field-collected population of Bemisia tabaci (sweet potato whitefly) biotype B Devil's garden KAC (F3) eggs in cotton seedlings cut stem assessed as mortality measured after 14 days by stabilization treatment based systemic uptake bioassay.
The subject of assay [9] is Bemisia tabaci. In words: Insecticidal activity against field-collected population of Bemisia tabaci (sweet potato whitefly) biotype B Homestead #1 (F4) eggs in cotton seedlings cut stem assessed as mortality measured after 14 days by stabilization treatment based systemic uptake bioassay.
For assay [10], the system named is Bemisia tabaci. In words: Insecticidal activity against field-collected population of Bemisia tabaci (sweet potato whitefly) biotype B GCC-EV-Tom (F4) eggs in cotton seedlings cut stem assessed as mortality measured after 14 days by stabilization treatment based systemic uptake bioassay.
Assay [11] relates to Bemisia tabaci. Briefly: Insecticidal activity against field-collected population of Bemisia tabaci (sweet potato whitefly) biotype B Parrish (F3) eggs in cotton seedlings cut stem assessed as mortality measured after 14 days by stabilization treatment based systemic uptake bioassay.
The subject of assay [12] is Bemisia tabaci. Briefly: Insecticidal activity against field-collected population of Bemisia tabaci (sweet potato whitefly) biotype B Myakka (F2) eggs in cotton seedlings cut stem assessed as mortality measured after 14 days by stabilization treatment based systemic uptake bioassay.
For assay [13], the system named is Bemisia tabaci. In words: Insecticidal activity against field-collected population of Bemisia tabaci (sweet potato whitefly) biotype B Homestead #1 (F2-F3) eggs in cotton seedlings cut stem assessed as mortality measured after 14 days by stabilization treatment based systemic uptake bioassay.

As to `CNC(=O)c1cc(C#N)cc(C)c1NC(=O)c1cc(Br)nn1-c1ncccc1Cl` [CYANTRANILIPROLE], the RatioLC50 in assay [1] is 0.752; in assay [2] it was 1.207; in assay [3], 1.174. In addition, the LC50 in [4] stood at 0.049 mgAi/L; in [5], 0.037 mgAi/L; in [6], 0.059 mgAi/L; in [7], 0.058 mgAi/L; in assay [8], 0.033 mgAi/L; in assay [9], 0.023 mgAi/L. Moreover, the LC50 in assay [10] came to 0.034 mgAi/L; in [11], 0.015 mgAi/L; in assay [12] it was 0.023 mgAi/L; in assay [13], 0.013 mgAi/L.

(Values after ChEMBL document CHEMBL3046676, “Baseline susceptibility of Bemisia tabaci (Genn.) biotype B in southern Florida to cyantraniliprole” (2013).)
